From patent US8388963B2, “Antitumor combinations containing a VEGF-inhibiting agent and 5FU or a derivative thereof” (Aventis Pharma SA, priority 2004, dated 2013)
Read-outs that look alike come from different tables or passages of the source.

Legend:
MC 13/C mammary tumor = test: antitumor activity on subcutaneously transplanted mammary tumor in mice (study BCM-1428)
Procedure: A product is considered to be active if log10 killed cells is greater than or equal to 0.7. A product is considered to be very active if the log10 killed cells is greater than 2.8.
30 to 60 mg of an MC 13/C mammary tumor fragment are transplanted bilaterally, subcutaneously, into the animals subjected to the experiment, generally mice, on day 0. The animals bearing the tumors are randomized before being subjected to the various treatments and controls. In the case of treatment of advanced tumors, the tumors are left to develop until the desired size, the animals having insufficiently developed tumors being eliminated. The animals selected are divided up randomly so as to undergo the treatments and the controls. […] The chemotherapy generally begins from 3 to 22 days after the tumor transplant, according to the type of tumor, and the animals are observed every day. The various groups of animals are weighed three or four times a week until the maximum weight loss is obtained, and then the groups are weighed at least once a week until the end of the trial.
The tumors are measured two or three times a week until the tumor reaches approximately 2 g or until the animal's death if the latter occurs before the tumor reaches 2 g. The animals are autopsied when they are sacrificed.
The antitumor activity is determined as a function of the various parameters recorded.
0.2 ml per mouse is prepared, according to the usual technique, for intravenous administration, from a commercial solution of 5 cm^3 containing 250 mg of 5 FU to be diluted with 5% glucose in water.
These solutions are administered simultaneously, after suitable dilution, by infusion.

[1] = assay type: in vivo
[2] = iv 5-FU 34.6 mg/kg/day (total 103.8), days 4,11,18
[3] = iv 5-FU 55.8 mg/kg/day (total 167.4), days 4,11,18
[4] = iv 5-FU 90 mg/kg/day (total 270), days 4,11,18
[5] = iv 5-FU 145 mg/kg/day (total 435), days 4,11,18
[6] = sc VEGF-Trap 2.5 mg/kg/day (total 15), days 4,7,11,14,18,21
[7] = sc VEGF-Trap 10 mg/kg/day (total 60), days 4,7,11,14,18,21
[8] = sc VEGF-Trap 25 mg/kg/day (total 150), days 4,7,11,14,18,21
[9] = sc VEGF-Trap 40 mg/kg/day (total 240), days 4,7,11,14,18,21

O=c1[nH]cc(F)c(=O)[nH]1 [5-FU, 5-fluorouracil, reference compound]
% T/C (inhibition of tumor growth at day 24) (MC 13/C mammary tumor; [2]): 34%
T-C days (delay of tumor growth) (MC 13/C mammary tumor; [2]): 4.6 days
lck (log cells killed) (MC 13/C mammary tumor; [2]): 0.5
% T/C (inhibition of tumor growth at day 24) (MC 13/C mammary tumor; [3]): 12%
T-C days (delay of tumor growth) (MC 13/C mammary tumor; [3]): 7.8 days
lck (log cells killed) (MC 13/C mammary tumor; [3]): 0.8
% T/C (inhibition of tumor growth at day 24) (MC 13/C mammary tumor; [4]): 0%
T-C days (delay of tumor growth) (MC 13/C mammary tumor; [4]): 12.5 days
lck (log cells killed) (MC 13/C mammary tumor; [4]): 1.3
% T/C (inhibition of tumor growth at day 24) (MC 13/C mammary tumor; [5]): Toxic
% weight loss at the lowest point [1, 2]: +2.3%
Death due to the treatment [1, 2]: 0/5
% weight loss at the lowest point [1, 3]: 1.1%
Death due to the treatment [1, 3]: 0/5
% weight loss at the lowest point [1, 4]: 4.8%
Death due to the treatment [1, 4]: 0/5
% weight loss at the lowest point [1, 5]: 8.7%
Death due to the treatment [1, 5]: 1/5

VEGF-Trap: fusion protein: VEGFR1 signal sequence, Ig domain D2 of VEGFR1, Ig domain D3 of VEGFR2, Fc domain of IgG1
% T/C (inhibition of tumor growth at day 24) (MC 13/C mammary tumor; [6]): 32%
T-C days (delay of tumor growth) (MC 13/C mammary tumor; [6]): 5.2 days
lck (log cells killed) (MC 13/C mammary tumor; [6]): 0.6
% T/C (inhibition of tumor growth at day 24) (MC 13/C mammary tumor; [7]): 9%
T-C days (delay of tumor growth) (MC 13/C mammary tumor; [7]): 12.1 days
lck (log cells killed) (MC 13/C mammary tumor; [7]): 1.3
% T/C (inhibition of tumor growth at day 24) (MC 13/C mammary tumor; [8]): 8%
T-C days (delay of tumor growth) (MC 13/C mammary tumor; [8]): 13.9 days
lck (log cells killed) (MC 13/C mammary tumor; [8]): 1.5
% T/C (inhibition of tumor growth at day 24) (MC 13/C mammary tumor; [9]): 4%
T-C days (delay of tumor growth) (MC 13/C mammary tumor; [9]): 12.7 days
lck (log cells killed) (MC 13/C mammary tumor; [9]): 1.4
% weight loss at the lowest point [1, 6]: 0.9%
Death due to the treatment [1, 6]: 0/5
% weight loss at the lowest point [1, 7]: 1.1%
Death due to the treatment [1, 7]: 0/5
% weight loss at the lowest point [1, 8]: 1.1%
Death due to the treatment [1, 8]: 0/5
% weight loss at the lowest point [1, 9]: 2.3%
Death due to the treatment [1, 9]: 0/5
